Among the data in ChEMBL document CHEMBL5257061, “Structural Study of Potent Triazole-Based Inhibitors of Staphylococcus aureus Biotin Protein Ligase” (ACS Med Chem Lett, 2023) are MIC and Ki values, retold here.

In brackets after ≈: the same amount, converted by molar mass.

Assay [1] has as its system Staphylococcus aureus. The assay can be described thus: Antibacterial activity against Staphylococcus aureus ATCC 49775 assessed as inhibition of bacterial growth incubated for 16 to 20 hrs by CLSI protocol based two-fold serial dilution method. The following applies: time 16-20 hrs. Format: functional.
A short description of assay [2]: Inhibition of Staphylococcus aureus Biotin protein ligase assessed as inhibition constant by biotinylation assay.
The nature of assay [3]: Inhibition of recombinant Staphylococcus aureus C-terminal hexahistidine tagged Biotin protein ligase expressed in Escherichia coli BL21 (DE3) assessed as inhibition constant incubated for 10 mins in presence of ATP by [3H]-Biotin incorporation based liquid scintillation counting analysis.
A short description of assay [4]: Inhibition of Staphylococcus aureus Biotin protein ligase assessed as inhibition constant.
Assay [5] has as its system Staphylococcus aureus. The assay can be described thus: Antibacterial activity against Staphylococcus aureus ATCC 49775 assessed as inhibition of bacterial growth. Format: functional.
The nature of assay [6]: Inhibition of recombinant Staphylococcus aureus C-terminal hexahistidine tagged Biotin protein ligase expressed in Escherichia coli BL21 (DE3) assessed as inhibition constant incubated for 30 mins by [3H]-Biotin incorporation based radioactivity based assay.

As a reminder, the MIC is the smallest concentration in the dilution series that meets the test's criterion for growth inhibition. One may read the Ki as a dissociation constant, usually derived from enzyme kinetics or from competition with a known ligand.

`Nc1cc(CNC(=O)c2ccc(C(c3cccc(F)c3)n3nnc(CCCCC[C@@H]4SC[C@@H]5NC(=O)N[C@@H]54)c3F)cc2)ccn1` (some centres not stated): the MIC with Staphylococcus aureus [1] was more than 64 µg/mL. Moreover, the Ki in assay [2] amounted to 131 nM.
The like results for `O=C1N[C@H]2[C@H](CS[C@H]2CCCCCc2cn(C(c3ccc(C(=O)NCCCc4c[nH]cn4)cc3)c3cccc(F)c3)nn2)N1` (some centres not stated) were, in that order, 32 µg/mL (≈ 51.9 µM) and 181 nM.
As to `Cc1ccc2oc(=O)n(CCCCn3nnc(CCCCC[C@@H]4SC[C@@H]5NC(=O)N[C@@H]54)c3F)c2c1`, in assay [3], the inhibition constant Ki was determined as 420 nM.
Consider `Nc1ccc(CNC(=O)c2ccc(C(c3cccc(F)c3)n3cc(CCCCC[C@@H]4SC[C@@H]5NC(=O)N[C@@H]54)nn3)cc2)cc1` (some centres not stated), for which, in the assay with Staphylococcus aureus [1], the MIC was more than 64 µg/mL. In addition, the Ki in assay [2] was 63 nM.
Take `O=C1N[C@H]2[C@H](CS[C@H]2CCCCCc2cn(C(c3ccc(C(=O)NCCc4c[nH]cn4)cc3)c3cccc(F)c3)nn2)N1` (some centres not stated): the Ki in assay [4] stood at 6.01 nM. Further, in the assay on Staphylococcus aureus [5], the minimal inhibitory concentration (MIC) stood at 1 µg/mL (≈ 1.66 µM).
Consider `NC(=O)CCCCNC(=O)c1ccc(C(c2cccc(F)c2)n2cc(CCCCC[C@@H]3SC[C@@H]4NC(=O)N[C@@H]43)nn2)cc1` (some centres not stated), for which the MIC in the assay with Staphylococcus aureus [1] is more than 64 µg/mL. Further, the Ki in assay [2] was 246 nM.
As for `Nc1ncnc2c1ncn2[C@@H]1O[C@H](COP(=O)(O)OCCCCC[C@@H]2SC[C@@H]3NC(=O)N[C@@H]32)[C@@H](O)[C@H]1O`, the Ki in assay [6] is 30 nM.
As to `NCCCNC(=O)c1ccc(C(c2cccc(F)c2)n2nnc(CCCCC[C@@H]3SC[C@@H]4NC(=O)N[C@@H]43)c2F)cc1` (some centres not stated), in the assay on Staphylococcus aureus [1], the MIC is more than 64 µg/mL. For the same compound, the inhibitory constant (Ki) in assay [2] amounted to 268 nM.
The corresponding values for `NCCCNC(=O)c1ccc(C(c2cccc(F)c2)n2cc(CCCCC[C@@H]3SC[C@@H]4NC(=O)N[C@@H]43)nn2)cc1` (some centres not stated) are 8 µg/mL (≈ 14.1 µM) and 30 nM.
The like results for `O=C1N[C@H]2[C@H](CS[C@H]2CCCCCc2cn(C(c3ccc(C(=O)NCc4ccncc4)cc3)c3cccc(F)c3)nn2)N1` (some centres not stated) were, in that order, more than 64 µg/mL and 130 nM.
For the compound `Cc1ccc2oc(=O)n(CCCCn3cc(CCCCC[C@@H]4SC[C@@H]5NC(=O)N[C@@H]54)nn3)c2c1`, the inhibition constant (Ki) in assay [3] was determined as 230 nM.
Regarding `NC(=O)CCCNC(=O)c1ccc(C(c2cccc(F)c2)n2cc(CCCCC[C@@H]3SC[C@@H]4NC(=O)N[C@@H]43)nn2)cc1` (some centres not stated), the minimal inhibitory concentration (MIC) with Staphylococcus aureus [1] was determined as 4 µg/mL (≈ 6.74 µM). Moreover, in assay [2], the Ki was found to be 10 nM.
As for `O=C1N[C@H]2[C@H](CS[C@H]2CCCCCc2cn(Cc3ccc(C(=O)O)cc3)nn2)N1`, the Ki in assay [3] came out at 280 nM.
Regarding `Nc1cc(CNC(=O)c2ccc(C(c3cccc(F)c3)n3cc(CCCCC[C@@H]4SC[C@@H]5NC(=O)N[C@@H]54)nn3)cc2)ccn1` (some centres not stated), the Ki in assay [4] was found to be 8.43 nM. In the assay on Staphylococcus aureus [5], the MIC is 8 µg/mL (≈ 13 µM).
With `O=C1N[C@H]2[C@H](CS[C@H]2CCCCCc2cn(C(c3ccc(C(=O)NCc4cccnc4)cc3)c3cccc(F)c3)nn2)N1` (some centres not stated), in the assay on Staphylococcus aureus [1], the minimum inhibitory concentration (MIC) was more than 64 µg/mL. Also, in assay [2], the inhibitory constant (Ki) stood at 237 nM.
With `O=C1N[C@H]2[C@H](CS[C@H]2CCCCCc2cn(C(c3ccc(C(=O)NCc4ccccn4)cc3)c3cccc(F)c3)nn2)N1` (some centres not stated), the MIC in the assay on Staphylococcus aureus [1] was more than 64 µg/mL. In assay [2], the Ki is 544 nM.
As to `O=C1N[C@H]2[C@H](CS[C@H]2CCCCCc2cn(Cc3cccc(F)c3)nn2)N1`, the Ki in assay [3] came to 670 nM.
Regarding `O=C1N[C@H]2[C@H](CS[C@H]2CCCCCc2cn(C(c3ccc(C(=O)NCc4ccccc4)cc3)c3cccc(F)c3)nn2)N1` (some centres not stated), the MIC in the assay on Staphylococcus aureus [1] was more than 64 µg/mL. In addition, the Ki in assay [2] turned out to be 867 nM.
For the compound `Nc1ncnc2c1ncn2[C@@H]1O[C@H](Cn2cc(CCCCC[C@@H]3SC[C@@H]4NC(=O)N[C@@H]43)nn2)[C@@H](O)[C@H]1O`, the Ki in assay [6] was found to be 1170 nM.
